The values that follow come from US9206195B2, “Dihydrothienopyrimidines” (Boehringer Ingelheim International GmbH, priority 2011, dated 2015).

In the assay the test system is Aβ42 production (γ-secretase) in H4 neuroglioma cells stably expressing the human APP695 isoform. The assay is described as follows: Screening for preferential inhibition of Aβ42 vs. total Aβ production in H4 neuroglioma cells (Meso Scale Discovery electrochemiluminescence assays on supernatant). The format is cell-based. To be noted: for IC50: 22 hours incubation, Aβ42 in supernatant, read-out: Aβ42 cellular IC50; for Ratio Aβ(total)/Aβ42 (Aβ total IC50/Aβ42 IC50): higher ratio = more specific inhibition of Aβ42 over Aβ total. As for the experimental part: Cells were plated out to near confluency. The compounds to be tested were received as 10 mM stocks in 100% DMSO. A dilution series was initially generated in 100% DMSO and then diluted 200-fold in cell culture media such that the tested concentration range was 30 μM to 0.1 nM and the final DMSO concentration was 0.5%. The diluted compounds were incubated with the cells for 22 hours in an incubator at 37° C. and 5% CO2. Aβ42 as well as Aβ total levels were then measured post-incubation from the supernatant of the cells. Aβ42 levels were determined using a specific electrochemiluminescence assay provided by Meso Scale Discovery (Catalog #L21CA-1) according to the manufacturer's protocol. Aβ total levels were likewise determined using a specific electrochemiluminescence assay provided by Meso Scale Discovery (Catalog #L21ZA-1) according to the manufacturer's protocol.
In order to absolutely define the described compounds as modulators of γ-Secretase as opposed to simply inhibitors of γ-Secretase, measurements of not only Aβ42 but also Aβ total are performed.

For the compound `COc1cc(Nc2nc3c(c(N(C)C)n2)SC2(CCC2)C3)ccc1-c1cnc(C)o1` [Example 7], the IC50 (commonly the midpoint of a concentration-inhibition curve) is 100 nM and the “Ratio Aβ(total)/Aβ42 (Aβ total IC50/Aβ42 IC50)” value (shortened to “Ratio Aβ(total)/Aβ42”) was 242.

With `COc1cc(Nc2nc3c(c(N(C)C)n2)SC2(CCCCC2)C3)ccc1-n1cnc(C)c1` [Example 12], the IC50 worked out at 120 nM and the “Ratio Aβ(total)/Aβ42” value was found to be 61.

Regarding `Cc1cc(-c2ccc(Nc3nc4c(c(N(C)C)n3)SC3(CCC3)C4)cc2)ccn1` [Example 20], the 50% inhibitory concentration (IC50) came out at 1380 nM and the “Ratio Aβ(total)/Aβ42” value is 8.

As for `COc1cc(Nc2nc3c(c(C(C)C)n2)SC2(CCCCC2)C3)ccc1-n1cnc(C)c1` [Example 18], the IC50 came to 7590 nM and the “Ratio Aβ(total)/Aβ42” value came out at 2.

Take `COc1cc(Nc2nc(C)c3c(n2)CC2(CCC2)S3)ccc1-n1cnc(C)c1` [Example 10]: the half-inhibitory concentration (IC50) turned out to be 130 nM and the “Ratio Aβ(total)/Aβ42” value amounted to 110.

As for `COc1cc(Nc2nc3c(c(N4CCCCC4)n2)SC2(CCCCC2)C3)ccc1-n1cnc(C)c1` [Example 13], the 50% inhibitory concentration (IC50) is 130 nM and the “Ratio Aβ(total)/Aβ42” value was determined as 57.

`COc1cc(Nc2nc3c(c(N4CCCCC4)n2)[S+]([O-])C2(CCCCC2)C3)ccc1-n1cnc(C)c1` (centres unmarked) [Example 14]: the half-inhibitory concentration (IC50) is 120 nM and the “Ratio Aβ(total)/Aβ42” value was 100.

In the case of `COc1cc(Nc2nc3c(c(N4CCOCC4)n2)SC2(CCC2)C3)ccc1-n1cnc(C)c1` [Example 6], the half-maximal inhibitory concentration (IC50) was found to be 140 nM and the “Ratio Aβ(total)/Aβ42” value is on record as 55.

For `Cc1cn(-c2ccc(Nc3nc4c(c(N(C)C)n3)[S+]([O-])C3(CCC3)C4)cc2C#N)cn1` (centres unmarked) [Example 23], the concentration for half-maximal inhibition (IC50) amounted to 1190 nM and the “Ratio Aβ(total)/Aβ42” value was determined as 25.

As to `COc1cc(Nc2nc3c(c(N4CCCCC4)n2)SC2(CCOCC2)C3)ccc1-n1cnc(C)c1` [Example 16], the half-maximal inhibitory concentration (IC50) was determined as 820 nM and the “Ratio Aβ(total)/Aβ42” value was greater than 36.

On to `COc1cc(Nc2nc3c(c(NC4CCCC4)n2)[S+]([O-])C2(CCC2)C3)ccc1-n1cnc(C)c1` (centres unmarked) [Example 5], for which the 50% inhibitory concentration (IC50) came to 220 nM and the “Ratio Aβ(total)/Aβ42” value was determined as 54.

Take `COc1cc(Nc2nc3c(c(N4CCCCC4)n2)[S+]([O-])C2(CCOCC2)C3)ccc1-n1cnc(C)c1` (centres unmarked) [Example 17]: the IC50 stood at 530 nM and the “Ratio Aβ(total)/Aβ42” value came to 51.

On to `COc1cc(Nc2nc3c(c(NC4CCCC4)n2)SC2(CCC2)C3)ccc1-n1cnc(C)c1` [Example 1], for which the half-maximal inhibitory concentration (IC50) amounted to 190 nM and the “Ratio Aβ(total)/Aβ42” value is 37.

For the compound `Cc1ncc(-c2ccc(Nc3nc4c(c(N(C)C)n3)SC3(CCC3)C4)cn2)o1` [Example 2], the IC50 is 520 nM and the “Ratio Aβ(total)/Aβ42” value was determined as 51.

As to `COc1cc(Nc2nc3c(c(N(C)C)n2)[S+]([O-])C2(CCCCC2)C3)ccc1-n1cnc(C)c1` (centres unmarked) [Example 15], the IC50 was found to be 300 nM and the “Ratio Aβ(total)/Aβ42” value is on record as 61.

As to `Cc1cn(-c2ccc(Nc3nc4c(c(N(C)C)n3)SC3(CCC3)C4)cc2C#N)cn1` [Example 19], the IC50 stood at 370 nM and the “Ratio Aβ(total)/Aβ42” value came to 55.

On to `COc1cc(Nc2nc3c(c(N(C)C)n2)SC2(CCC2)C3)ccc1-n1cnc(C)c1` [Example 4], for which the IC50 is 130 nM and the “Ratio Aβ(total)/Aβ42” value came out at 50.

With `COc1cc(Nc2nc3c(c(C(C)C)n2)[S+]([O-])C2(CCCCC2)C3)ccc1-n1cnc(C)c1` (centres unmarked) [Example 21], the IC50 is 19700 nM and the “Ratio Aβ(total)/Aβ42” value was found to be 1.

In the case of `COc1cc(Nc2nc3c(c(N4CCCCC4)n2)SC2(CCC2)C3)ccc1-n1cnc(C)c1` [Example 3], the IC50 came to 90 nM and the “Ratio Aβ(total)/Aβ42” value is 85.

As to `COc1cc(Nc2nc3c(c(N4CCOCC4)n2)[S+]([O-])C2(CCC2)C3)ccc1-n1cnc(C)c1` (centres unmarked) [Example 8], the IC50 is 3250 nM and the “Ratio Aβ(total)/Aβ42” value is greater than 9.

As to `COc1cc(Nc2nc(C)c3c(n2)CC2(CCC2)[S+]3[O-])ccc1-n1cnc(C)c1` (centres unmarked) [Example 11], the half-inhibitory concentration (IC50) came out at 1550 nM and the “Ratio Aβ(total)/Aβ42” value was 19.

Regarding `Cc1cc(-c2ccc(Nc3nc4c(c(N(C)C)n3)[S+]([O-])C3(CCC3)C4)cc2)ccn1` (centres unmarked) [Example 22], the IC50 amounted to 770 nM and the “Ratio Aβ(total)/Aβ42” value was 12.
